Laboratory results taken from ChEMBL document CHEMBL6182861, “Structural modification of heptamethine indocyanine dyes with improved aqueous solubility and stability for photothermal therapy” (Eur J Med Chem, 2025).
Calls of active or inactive are those of the source. The rule behind the calls is not given here.

Legend:
Mitochondrial membrane [1] = experiment: Inhibition of mitochondrial membrane potential in mouse 4T1 cells at 3.12 uM incubated for 24 hrs by Rh123 probe based CLSM; format: cell membranes
HepG2 [2] = experiment: Induction of apoptosis in human HepG2 cells at 3.12 uM incubated for 4 hrs followed by exposure to laser irradiation of 808 nm for 2 mins by Annexin V-FITC/PI staining based flow cytometry; format: functional, cell-based; details: time 242.0 min
[3] = Photosensitizing property of compound assessed as generation of singlet-state oxygen by ESR spectrometry; format: functional
HepG2 [4] = experiment: Induction of ROS generation in human HepG2 cells at 3.12 uM incubated for 4 hrs followed by exposure to laser irradiation of 808 nm for 2 mins by flow cytometry; format: functional, cell-based; details: time 242.0 min
[5] = Photothermal property of compound assessed as increase in photothermal conversion efficiency at 20 uM exposed to laser irradiation of 808 nm for 2 mins; format: functional
Mitochondrial membrane [6] = experiment: Inhibition of mitochondrial membrane potential in human HepG2 cells at 3.12 uM incubated for 24 hrs by Rh123 probe based CLSM; format: cell membranes
Mitochondrial membrane [7] = experiment: Inhibition of mitochondrial membrane potential in mouse 4T1 cells at 3.12 uM incubated for 24 hrs by flow cytometry; format: cell membranes
[8] = Drug uptake in mouse 4T1 cells assessed as increase in fluorescence intensity at 3.12 uM incubated for 4 hrs by flow cytometry; format: ADME, cell-based; details: 4t1, 4 h
[9] = Drug uptake in human HepG2 cells assessed as increase in fluorescence intensity at 3.12 uM incubated for 4 hrs by CLSM; format: ADME, cell-based; details: hepg2, 4 h
[10] = Drug uptake in mouse 4T1 cells assessed as increase in fluorescence intensity at 3.12 uM incubated for 4 hrs by CLSM; format: ADME, cell-based; details: 4t1, 4 h
[11] = Toxicity in female BALB/c mouse bearing mouse 4T1 cells assessed as damage in kidney at 2.5 mg/kg, iv pretreated for 4 hrs followed by exposure to laser irradiation of 808 nm for 5 mins on every 2 days treated for 15 days by H and E staining based analysis; format: organism-based; details: in vivo, 360 h, time 15 day
HepG2 [12] = experiment: Induction of ROS generation in human HepG2 cells at 3.12 uM incubated for 4 hrs followed by exposure to laser irradiation of 808 nm for 2 mins by DCFH-DA probe based CLSM; format: functional, cell-based; details: time 242.0 min
[13] = Toxicity in ICR mouse bearing mouse H22 cells assessed as damage in lung at 2.5 mg/kg, iv pretreated for 4 hrs followed by exposure to laser irradiation of 808 nm for 5 mins on every 2 days treated for 15 days by H and E staining based analysis; format: organism-based; details: in vivo, 360 h, time 15 day
4T1 [14] = experiment: Induction of apoptosis in mouse 4T1 cells at 3.12 uM incubated for 4 hrs followed by exposure to laser irradiation of 808 nm for 2 mins by Annexin V-FITC/PI staining based flow cytometry; format: functional, cell-based; details: time 242.0 min
4T1 [15] = experiment: Induction of ROS generation in mouse 4T1 cells at 3.12 uM incubated for 4 hrs followed by exposure to laser irradiation of 808 nm for 2 mins by flow cytometry; format: functional, cell-based; details: time 242.0 min
Mitochondrial membrane [16] = experiment: Inhibition of mitochondrial membrane potential in mouse 4T1 cells at 3.12 uM preincubated for 4 hrs followed by exposure to laser irradiation of 808 nm for 2 mins and subsequent incubation for 20 hrs by Rh123 probe based CLSM; format: cell membranes; details: time 1442.0 min
Mitochondrial membrane [17] = experiment: Inhibition of mitochondrial membrane potential in mouse 4T1 cells at 3.12 uM preincubated for 4 hrs followed by exposure to laser irradiation of 808 nm for 2 mins and subsequent incubation for 20 hrs by flow cytometry; format: cell membranes; details: time 1442.0 min
[18] = Cytotoxicity against mouse NIH3T3 cells assessed as survival rate at 25 uM relative to control; format: toxicity, cell-based; details: read-out: Survival
[19] = Toxicity in female BALB/c mouse bearing mouse 4T1 cells assessed as damage in lung at 2.5 mg/kg, iv pretreated for 4 hrs followed by exposure to laser irradiation of 808 nm for 5 mins on every 2 days treated for 15 days by H and E staining based analysis; format: organism-based; details: in vivo, 360 h, time 15 day
[20] = Drug excretion in female BALB/c mouse bearing mouse 4T1 cells at 2.5 mg/kg, iv measured up to 12 hrs by fluorescence imaging analysis; format: ADME, organism-based; details: in vivo
Mitochondrial membrane [21] = experiment: Inhibition of mitochondrial membrane potential in human HepG2 cells at 3.12 uM preincubated for 4 hrs followed by exposure to laser irradiation of 808 nm for 2 mins and subsequent incubation for 20 hrs by flow cytometry; format: cell membranes; details: time 1442.0 min
Mitochondrial membrane [22] = experiment: Inhibition of mitochondrial membrane potential in human HepG2 cells at 3.12 uM preincubated for 4 hrs followed by exposure to laser irradiation of 808 nm for 2 mins and subsequent incubation for 20 hrs by Rh123 probe based CLSM; format: cell membranes; details: time 1442.0 min
Mitochondrial membrane [23] = experiment: Inhibition of mitochondrial membrane potential in human HepG2 cells at 3.12 uM incubated for 24 hrs by flow cytometry; format: cell membranes
[24] = Photosensitizing property of compound assessed as generation of singlet-state oxygen at 10 uM exposed to laser irradiation of 808 nm for 2 mins by SOSG probe based analysis; format: functional
4T1 [25] = experiment: Induction of ROS generation in mouse 4T1 cells at 3.12 uM incubated for 4 hrs followed by exposure to laser irradiation of 808 nm for 2 mins by DCFH-DA probe based CLSM; format: functional, cell-based; details: time 242.0 min
[26] = Drug uptake in human HepG2 cells assessed as increase in fluorescence intensity at 3.12 uM incubated for 4 hrs by flow cytometry; format: ADME, cell-based; details: hepg2, 4 h
[27] = Drug accumulation in tumor of female BALB/c mouse bearing mouse 4T1 cells assessed as increase in fluorescence intensity at 2.5 mg/kg, iv measured after 4 hrs by fluorescence imaging analysis; format: ADME, organism-based, Neoplasm; details: in vivo
4T1 [28] = experiment: Antitumor activity against mouse 4T1 cells implanted in female BALB/c mouse assessed as decrease in tumor weight at 2.5 mg/kg, iv pretreated for 4 hrs followed by exposure to laser irradiation of 808 nm for 5 mins on every 2 days treated for 15 days; format: functional, organism-based; details: time 15.0 day
[29] = Photothermal stability of compound at 60 degreeC at 20 uM exposed to laser irradiation of 808 nm for 2.5 mins; format: physicochemical
HepG2 [30] = experiment: Photothermal cytotoxicity against human HepG2 cells up to 25 uM preincubated for 4 hrs followed by exposure to laser irradiation of 808 nm for 2 mins and subsequent incubation for 20 hrs by MTT assay; format: functional, cell-based; details: time 1442.0 min
[31] = Toxicity in ICR mouse bearing mouse H22 cells assessed as damage in lung at 1.8 mg/kg, iv pretreated for 4 hrs followed by exposure to laser irradiation of 808 nm for 5 mins on every 2 days treated for 15 days by H and E staining based analysis; format: organism-based; details: in vivo, 360 h, time 15 day
[32] = Biodistribution in liver of female BALB/c mouse bearing mouse 4T1 cells at 1.8 mg/kg, iv measured up to 12 hrs by fluorescence imaging analysis; format: ADME, organism-based; details: in vivo
Mus musculus = experiment: Photothermal effect in female BALB/c mouse bearing mouse 4T1 cells at 42 degreeC at 1.8 mg/kg, iv pretreated for 4 hrs followed by exposure to laser irradiation of 808 nm for 5 mins; format: functional, organism-based; details: time 245.0 min
[33] = Toxicity in female BALB/c mouse bearing mouse 4T1 cells assessed as damage in spleen at 1.8 mg/kg, iv pretreated for 4 hrs followed by exposure to laser irradiation of 808 nm for 5 mins on every 2 days treated for 15 days by H and E staining based analysis; format: organism-based; details: in vivo, 360 h, time 15 day

Structure (SMILES) | inhibition (Mitochondrial membrane [1]) | Activity (HepG2 [2]) | Activity [3] | Activity (HepG2 [4]) | Activity [5] | inhibition (Mitochondrial membrane [6]) | inhibition (Mitochondrial membrane [7]) | Drug uptake [8] | Drug uptake [9] | Drug uptake [10] | Activity (HepG2 [12]) | Activity (4T1 [14]) | Activity (4T1 [15]) | inhibition (Mitochondrial membrane [16]) | inhibition (Mitochondrial membrane [17]) | viability at 25 µM [18] | inhibition (Mitochondrial membrane [21]) | inhibition (Mitochondrial membrane [22]) | inhibition (Mitochondrial membrane [23]) | Activity [24] | other results
COCCOCCOCCN1/C(=C/C=C/C(=C/C=C/C2=[N+](CCOCCOCCOC)c3ccccc3C2(C)C)C(=O)OC)C(C)(C)c2ccccc21.[I-] | Active; Certain Degree Of Inhibition Was Observed | Active | Active | Active; Exhibited Only A Smaller Increase In Activity | Active; Highest Efficiency Observed Among Tested Compounds | Active; Certain Degree Of Inhibition Was Observed | Active; Certain Degree Of Inhibition Was Observed | Active | Active | Active | Active; Exhibited Only A Smaller Increase In Activity | Active | Active; Exhibited Only A Smaller Increase In Activity | Active; Significant Inhibition Was Observed | Active; Significant Inhibition Was Observed | > 60% | Active; Significant Inhibition Was Observed | Active; Significant Inhibition Was Observed | Active; Certain Degree Of Inhibition Was Observed | Active | Activity [11]: Non-toxic; Activity [13]: Non-toxic; Activity [19]: Non-toxic; Drug excretion [20]: Active; Activity (4T1 [25]): Active; Exhibited Only A Smaller Increase In Activity; Drug uptake [26]: Active; Drug uptake [27]: Active; Activity (4T1 [28]): Active; Stability [29]: Stable
COC(=O)C(=C\C=C\C1=[N+](C)c2ccccc2C1(C)C)/C=C/C=C1/N(C)c2ccccc2C1(C)C.[I-] | Active; Certain Degree Of Inhibition Was Observed | Active | Active | Active | Not active; Lowest Efficiency Observed Among Tested Compounds | Active; Certain Degree Of Inhibition Was Observed | Active; Certain Degree Of Inhibition Was Observed | Active | Active | Active | Active | Active | Active | Active; Significant Inhibition Was Observed | Active; Significant Inhibition Was Observed | > 60% | Active; Significant Inhibition Was Observed | Active; Significant Inhibition Was Observed | Active; Certain Degree Of Inhibition Was Observed | inactive | Activity (HepG2 [30]): Not active; Limited Photo-Thermal Toxicity Was Observed; Activity [31]: Non-toxic; Activity (4T1 [25]): Active; Drug uptake [32]: Active; Drug uptake [26]: Active; Activity (Mus musculus): Active; Stability [29]: Unstable; Activity [33]: Non-toxic
